For orientation: AUC(0-inf) means total exposure, with the tail of the curve extrapolated. Usually AUC(0-t) stands for the area under the concentration-time curve up to a stated or last time point. What is called clearance is the volume of plasma or blood freed of the substance per unit of time.

For data set [1], the system named is virus H1N1 A/Weiss/43. The data set is described as follows: microbe, parasite or virus in culture. The format is cell-based. The following applies: Influenza A virus, H1N1, 120 h; MDCK cells, CPE, 5 days, CCK-8; read-out: EC50, inhibitory activity against influenza virus (A/Weiss/43(H1N1)).
Data set [2] can be described thus: in vivo. The note with it: SD, rat.
Protocol: The compounds disclosed herein were administered in form of a saline solution containing 5% DMSO, 5% Kolliphor HS 15 and 90% Saline. For intravenous administration (iv), the animals were administered with a dose of 1 mg/kg, and blood samples (0.3 mL) were collected at the time points of 0.083, 0.25, 0.5, 1.0, 2.0, 5.0, 7.0 and 24 h after drug administration, then each blood sample was processed to separate plasma by centrifugation at 3000 rpm or 4000 rpm for 10 minutes. For oral administration (po), the animals were administered with a dose of 5 mg/kg, and blood samples (0.3 mL) were collected at the time points of 0.25, 0.5, 1.0, 2.0, 5.0, 7.0 and 24 h after drug administration, then each blood sample was processed to separate plasma by centrifugation at 3000 rpm or 4000 rpm for 10 minutes. Plasma samples were collected and stored at −20° C. or −70° C. until LC/MS/MS analysis.

For `O=C(O)[C@H]1C2CCC(CC2)[C@@H]1Nc1cc(-c2cc3ccccc3s2)nc(-c2c[nH]c3ncc(Cl)nc23)n1` [Example 15, (2S,3S)-3-((6-(benzo[b]thiophen-2-yl)-2-(2-chloro-5H-pyrrolo[2,3-b]pyrazin-7-yl)pyrimidin-4-yl)amino)bicyclo[2.2.2]octane-2-carboxylic Acid], the EC50 in data set [1] was 760 pM.

As for `O=C(O)[C@H]1C2CCC(CC2)[C@@H]1Nc1nc(-c2c[nH]c3ncc(Cl)nc23)nc(-c2ccc(Cl)s2)c1F` [Example 29, (2S,3S)-3-((2-(2-chloro-5H-pyrrolo[2,3-b]pyrazin-7-yl)-6-(5-chlorothiophen-2-yl)-5-fluoropyrimidin-4-yl)amino)bicyclo[2.2.2]octane-2-carboxylic Acid], in data set [2] (iv, 1 mg/kg), the AUC(0-inf) amounted to 4980 ng·h/mL, the area under the curve AUC(0-t) turned out to be 4830 ng·h/mL and the clearance was 56.3 mL/min/kg. In data set [2] (po, 5 mg/kg), this compound yielded an AUC(0-inf) of 23800 ng·h/mL and an AUC(0-t) of 23700 ng·h/mL. In data set [1], the EC50 amounted to 13 pM.

With `Cn1cc(-c2nc(-c3c[nH]c4ncc(Cl)nc34)nc(NC3C4CCC(CC4)C3C(=O)O)c2F)cn1` (racemic) [Example 5, (+/−)-trans-3-((2-(2-chloro-5H-pyrrolo[2,3-b]pyrazin-7-yl)-5-fluoro-6-(1-methyl-1H-pyrazol-4-yl)pyrimidin-4-yl)amino)bicyclo[2.2.2]octane-2-carboxylic Acid], the EC50 in data set [1] was 3520 pM.

In data set [2] (iv, 1 mg/kg), `O=C(O)[C@H]1C2CCC(CC2)[C@@H]1Nc1nc(-c2c[nH]c3ncc(Cl)nc23)nc(-c2ccc(F)s2)c1F` [Example 62, (2S,3S)-3-((2-(2-chloro-5H-pyrrolo[2,3-b]pyrazin-7-yl)-5-fluoro-6-(5-fluorothiophen-2-yl)pyrimidin-4-yl)amino)bicyclo[2.2.2]octane-2-carboxylic Acid] showed a total exposure AUC(0-inf) of 5510 ng·h/mL, an AUC(0-t) of 5390 ng·h/mL and a clearance of 50.7 mL/min/kg. In data set [2] (po, 5 mg/kg), the AUC(0-inf) worked out at 25000 ng·h/mL and the AUC(0-t) worked out at 24400 ng·h/mL. Besides, the EC50 in data set [1] was 11 pM.

Take `Cc1ccc(-c2nc(-c3c[nH]c4ncc(Cl)nc34)nc(N[C@H]3C4CCC(CC4)[C@@H]3C(=O)O)c2F)s1` [Example 33, (2S,3S)-3-((2-(2-chloro-5H-pyrrolo[2,3-b]pyrazin-7-yl)-5-fluoro-6-(5-methylthiophen-2-yl)pyrimidin-4-yl)amino)bicyclo[2.2.2]octane-2-carboxylic Acid]: the EC50 in data set [1] was 10 pM.

With `O=C(O)[C@H]1C2CCC(CC2)[C@@H]1Nc1cc(-n2cccc2)nc(-c2c[nH]c3ncc(Cl)nc23)n1` [Example 55, (2S,3S)-3-((2-(2-chloro-5H-pyrrolo[2,3-b]pyrazin-7-yl)-6-(1H-pyrrol-1-yl)pyrimidin-4-yl)amino)bicyclo[2.2.2]octane-2-carboxylic Acid], the EC50 in data set [1] was 680 pM.

Consider `O=C(O)C1C2CCC(CC2)C1Nc1cc(-c2ccccc2)nc(-c2c[nH]c3ncc(Cl)nc23)n1` (racemic) [Example 12, (+/−)-trans-3-((2-(2-chloro-5H-pyrrolo[2,3-b]pyrazin-7-yl)-6-phenylpyrimidin-4-yl)amino)bicyclo[2.2.2]octane-2-carboxylic Acid], for which, in data set [1], the EC50 was 2540 pM.

Take `O=C(O)[C@H]1C2CCC(CC2)[C@@H]1Nc1nc(-c2c[nH]c3ncc(Cl)nc23)nc(-c2cccs2)c1F` [Example 13, (2S,3S)-3-((2-(2-chloro-5H-pyrrolo[2,3-b]pyrazin-7-yl)-5-fluoro-6-(thiophen-2-yl)pyrimidin-4-yl)amino)bicyclo[2.2.2]octane-2-carboxylic Acid]: in data set [2] (iv, 1 mg/kg), the area under the curve AUC(0-inf) amounted to 10100 ng·h/mL, the exposure AUC(0-t) was determined as 9900 ng·h/mL and the clearance is 27.8 mL/min/kg. In data set [2] (po, 5 mg/kg), this compound gave an AUC(0-inf) of 29000 ng·h/mL and an exposure AUC(0-t) of 27400 ng·h/mL. Further, the EC50 in data set [1] was 17 pM.

In the case of `N#Cc1ccc(-c2nc(-c3c[nH]c4ncc(Cl)nc34)nc(N[C@H]3C4CCC(CC4)[C@@H]3C(=O)O)c2F)s1` [Example 63, (2S,3S)-3-((2-(2-chloro-5H-pyrrolo[2,3-b]pyrazin-7-yl)-6-(5-cyanothiophen-2-yl)-5-fluoropyrimidin-4-yl)amino)bicyclo[2.2.2]octane-2-carboxylic acid], in data set [1], the EC50 worked out at 79 pM.

For the compound `O=C(O)[C@H]1C2CCC(CC2)[C@@H]1Nc1nc(-c2c[nH]c3ncc(Cl)nc23)ncc1F` [Compound A, reference compound], in data set [2] (iv, 1 mg/kg), the AUC(0-inf) came out at 894 ng·h/mL, the exposure AUC(0-t) is 894 ng·h/mL and the clearance is 312 mL/min/kg. In data set [2] (po, 5 mg/kg), this compound registered an area under the curve AUC(0-inf) of 2910 ng·h/mL and an exposure AUC(0-t) of 2880 ng·h/mL. In data set [1], the EC50 was determined as 33200 pM.

In the case of `O=C(O)[C@H]1C2CCC(CC2)[C@@H]1Nc1nc(-c2c[nH]c3ncc(Cl)nc23)nc2c1ccn2C(CF)CF` [Example 65, (2S,3S)-3-((2-(2-chloro-5H-pyrrolo[2,3-b]pyrazin-7-yl)-7-(1,3-difluoropropan-2-yl)-7H-pyrrolo[2,3-d]pyrimidin-4-yl)amino)bicyclo[2.2.2]octane-2-carboxylic Acid], in data set [2] (iv, 1 mg/kg), the AUC(0-inf) was found to be 2390 ng·h/mL, the AUC(0-t) worked out at 2370 ng·h/mL and the clearance is 121 mL/min/kg. In data set [2] (po, 5 mg/kg), the AUC(0-inf) was 6170 ng·h/mL and the AUC(0-t) is 6150 ng·h/mL.

In data set [2] (iv, 1 mg/kg), `O=C(O)[C@H]1C2CCC(CC2)[C@@H]1Nc1nc(-c2c[nH]c3ncc(Cl)nc23)nc(-c2nccs2)c1F` [Example 49, (2S,3S)-3-((2-(2-chloro-5H-pyrrolo[2,3-b]pyrazin-7-yl)-5-fluoro-6-(thiazol-2-yl)pyrimidin-4-yl)amino)bicyclo[2.2.2]octane-2-carboxylic Acid] showed an AUC(0-inf) of 3950 ng·h/mL, an AUC(0-t) of 3940 ng·h/mL and a clearance of 71.5 mL/min/kg. Besides, in data set [2] (po, 5 mg/kg), the area under the curve AUC(0-inf) came out at 3550 ng·h/mL and the AUC(0-t) was 3500 ng·h/mL. In data set [1], the EC50 was 521 pM.

Turning to `O=C(O)[C@H]1C2CCC(CC2)[C@@H]1Nc1nc(-c2c[nH]c3nccnc23)nc(-c2cccs2)c1F` [Example 64, (2S,3S)-3-((5-fluoro-2-(5H-pyrrolo[2,3-b]pyrazin-7-yl)-6-(thiophen-2-yl)pyrimidin-4-yl)amino)bicyclo[2.2.2]octane-2-carboxylic Acid], in data set [1], the EC50 was determined as 887 pM.

In data set [2] (iv, 1 mg/kg), `CC(C)Cn1ccc2c(N[C@H]3C4CCC(CC4)[C@@H]3C(=O)O)nc(-c3c[nH]c4ncc(Cl)nc34)nc21` [Example 66, (2S,3S)-3-((2-(2-chloro-5H-pyrrolo[2,3-b]pyrazin-7-yl)-7-isobutyl-7H-pyrrolo[2,3-d]pyrimidin-4-yl)amino)bicyclo[2.2.2]octane-2-carboxylic Acid] had an area under the curve AUC(0-inf) of 3480 ng·h/mL, an AUC(0-t) of 3470 ng·h/mL and a clearance of 82.5 mL/min/kg. In data set [2] (po, 5 mg/kg), this compound returned an AUC(0-inf) of 12600 ng·h/mL and an AUC(0-t) of 12500 ng·h/mL. Moreover, the EC50 in data set [1] was determined as 274 pM.

As to `O=C(O)C1C2CCC(CC2)C1Nc1cc(-c2ccco2)nc(-c2c[nH]c3ncc(Cl)nc23)n1` (racemic) [Example 1, (+/−)-trans-3-((2-(2-chloro-5H-pyrrolo[2,3-b]pyrazin-7-yl)-6-(furan-2-yl)pyrimidin-4-yl)amino)bicyclo[2.2.2]octane-2-carboxylic Acid], the EC50 in data set [1] came to 3890 pM.

As for `O=C(O)C1C2CCC(CC2)C1Nc1nc(-c2c[nH]c3ncc(Cl)nc23)nc(-c2ccco2)c1F` (racemic) [Example 3, (+/−)-trans-3-((2-(2-chloro-5H-pyrrolo[2,3-b]pyrazin-7-yl)-5-fluoro-6-(furan-2-yl)pyrimidin-4-yl)amino)bicyclo[2.2.2]octane-2-carboxylic Acid], the EC50 in data set [1] is 672 pM.

Turning to `O=C(O)C1C2CCC(CC2)C1Nc1nc(-c2c[nH]c3ncc(Cl)nc23)nc(-c2ccccc2)c1F` (racemic) [Example 4, (+/−)-trans-3-((2-(2-chloro-5H-pyrrolo[2,3-b]pyrazin-7-yl)-5-fluoro-6-phenylpyrimidin-4-yl)amino)bicyclo[2.2.2]octane-2-carboxylic Acid], the EC50 in data set [1] is 116 pM.

In data set [2] (iv, 1 mg/kg), `O=C(O)[C@H]1C2CCC(CC2)[C@@H]1Nc1nc(-c2c[nH]c3ncc(Cl)nc23)nc(-c2cc3ccccc3s2)c1F` [Example 7a, (2S,3S)-3-((6-(benzo[b]thiophen-2-yl)-2-(2-chloro-5H-pyrrolo[2,3-b]pyrazin-7-yl)-5-fluoropyrimidin-4-yl)amino)bicyclo[2.2.2]octane-2-carboxylic Acid] showed a total exposure AUC(0-inf) of 3260 ng·h/mL, an exposure AUC(0-t) of 3220 ng·h/mL and a clearance of 85.2 mL/min/kg. In data set [2] (po, 5 mg/kg), this compound registered an AUC(0-inf) of 9950 ng·h/mL and an AUC(0-t) of 9840 ng·h/mL.

In the case of `O=C(O)[C@H]1C2CCC(CC2)[C@@H]1Nc1nc(-c2c[nH]c3nc(Cl)cnc23)nc(-c2cccs2)c1F` [Example 53, (2S,3S)-3-((2-(3-chloro-5H-pyrrolo[2,3-b]pyrazin-7-yl)-5-fluoro-6-(thiophen-2-yl)pyrimidin-4-yl)amino)bicyclo[2.2.2]octane-2-carboxylic Acid], in data set [2] (iv, 1 mg/kg), the AUC(0-inf) was found to be 3740 ng·h/mL, the exposure AUC(0-t) worked out at 3670 ng·h/mL and the clearance is 74.2 mL/min/kg. In data set [2] (po, 5 mg/kg), the area under the curve AUC(0-inf) was 18000 ng·h/mL and the exposure AUC(0-t) stood at 17700 ng·h/mL.

Turning to `O=C(O)[C@H]1C2CCC(CC2)[C@@H]1Nc1cc(N2CCN(c3ccccc3)CC2)nc(-c2c[nH]c3ncc(Cl)nc23)n1` [Example 39, (2S,3S)-3-((2-(2-chloro-5H-pyrrolo[2,3-b]pyrazin-7-yl)-6-(4-phenylpiperazin-1-yl)pyrimidin-4-yl)amino)bicyclo[2.2.2]octane-2-carboxylic Acid], the EC50 in data set [1] came to 1220 pM.

Regarding `O=C(O)C1C2CCC(CC2)C1Nc1nc(-c2c[nH]c3ncc(Cl)nc23)nc(-c2cc3ccccc3o2)c1F` (racemic) [Example 6, (+/−)-trans-3-((6-(benzofuran-2-yl)-2-(2-chloro-5H-pyrrolo[2,3-b]pyrazin-7-yl)-5-fluoropyrimidin-4-yl)amino)bicyclo[2.2.2]octane-2-carboxylic Acid], the EC50 in data set [1] came out at 398 pM.

These data come from patent publication US10987354B2, “Inhibitors of influenza virus replication and uses thereof” (SUNSHINE LAKE PHARMA CO., LTD., priority 2016, dated 2021).
